Results reported in PubChem BioAssay AID1259407 (Chemical Carcinogenesis Research Information System (CCRIS), 2018).
The source made the active and inactive calls. How the calls were made is not given here.

Tested on: CCRIS mutagenicity, Ames/micronucleus/aberration tests
Test: CCRIS mutagenicity studies
[1] = Test System: AMES SALMONELLA TYPHIMURIUM, Strain/Indicator: TA98, Metabolic Activation: NONE, Method: STANDARD PLATE
[2] = Test System: AMES SALMONELLA TYPHIMURIUM, Strain/Indicator: TA100, Metabolic Activation: NONE, Method: STANDARD PLATE

With `O=C1OC(O)C(C(Cl)Cl)=C1Cl` (stereo unspecified) as the molecule, how does the mutagenic call (Test System: AMES SALMONELLA TYPHIMURIUM, Strain/Indicator: RSJ100, Metabolic Activation: NONE, Method: PREINCUBATION) read?
The mutagenic call was “inactive; negative”.

And the mutagenic call (Test System: AMES SALMONELLA TYPHIMURIUM, Strain/Indicator: RSJ100, Metabolic Activation: RAT LIVER S-9, Method: PREINCUBATION)?
The mutagenic call was “inactive; negative”.

What about the mutagenic call (Test System: AMES SALMONELLA TYPHIMURIUM, Strain/Indicator: TA92, Metabolic Activation: NONE, Method: STANDARD PLATE) of the same molecule?
The mutagenic call was “active; positive”.

And the mutagenic call (Test System: AMES SALMONELLA TYPHIMURIUM, Strain/Indicator: TA97, Metabolic Activation: NONE, Method: STANDARD PLATE)?
The mutagenic call was “active; positive”.

What about the mutagenic call (Test System: AMES SALMONELLA TYPHIMURIUM, Strain/Indicator: TA98, Metabolic Activation: NONE, Method: PREINCUBATION) of the same molecule?
The mutagenic call was “active; positive”.

And the mutagenic call [1]?
The mutagenic call was “active; positive”.

And the mutagenic call (Test System: AMES SALMONELLA TYPHIMURIUM, Strain/Indicator: TA98, Metabolic Activation: RAT LIVER S-9, AROCLOR 1254, Method: STANDARD PLATE)?
The mutagenic call was “inactive; negative”.

What about the mutagenic call (Test System: AMES SALMONELLA TYPHIMURIUM, Strain/Indicator: TA98, Metabolic Activation: RAT LIVER S-9, Method: PREINCUBATION) of the same molecule?
The mutagenic call was “active; positive”.

And the mutagenic call (Test System: AMES SALMONELLA TYPHIMURIUM, Strain/Indicator: TA98, Metabolic Activation: RAT, LIVER, S-9, PHENOBARBITAL AND 5,6-BENZOFLAVONE, Method: PREINCUBATION)?
The mutagenic call was “inactive; negative”.

What about the mutagenic call (Test System: AMES SALMONELLA TYPHIMURIUM, Strain/Indicator: TA100, Metabolic Activation: NONE, Method: PREINCUBATION) of the same molecule?
The mutagenic call was “active; positive”.

And the mutagenic call (Test System: AMES SALMONELLA TYPHIMURIUM, Strain/Indicator: TA100, Metabolic Activation: RAT LIVER S-9, AROCLOR 1254, Method: STANDARD PLATE)?
Its mutagenic call is “inactive; negative”.

And the mutagenic call (Test System: AMES SALMONELLA TYPHIMURIUM, Strain/Indicator: TA100, Metabolic Activation: RAT LIVER S-9, Method: PREINCUBATION)?
The mutagenic call was “inactive; negative”.

What about the mutagenic call (Test System: AMES SALMONELLA TYPHIMURIUM, Strain/Indicator: TA100, Metabolic Activation: RAT, LIVER, S-9, AROCLOR 1254, Method: STANDARD PLATE) of the same molecule?
Its mutagenic call is “active; positive”.

And the mutagenic call (Test System: AMES SALMONELLA TYPHIMURIUM, Strain/Indicator: TA100, Metabolic Activation: RAT, LIVER, S-9, PHENOBARBITAL AND 5,6-BENZOFLAVONE, Method: PREINCUBATION)?
The mutagenic call was “inactive; negative”.

What about the mutagenic call (Test System: AMES SALMONELLA TYPHIMURIUM, Strain/Indicator: TA102, Metabolic Activation: NONE, Method: STANDARD PLATE) of the same molecule?
Its mutagenic call is “active; positive”.

What about the mutagenic call (Test System: AMES SALMONELLA TYPHIMURIUM, Strain/Indicator: TA1535, Metabolic Activation: NONE, Method: STANDARD PLATE) of the same molecule?
The mutagenic call was “active; positive”.

What about the mutagenic call (Test System: AMES SALMONELLA TYPHIMURIUM, Strain/Indicator: TA1538, Metabolic Activation: NONE, Method: STANDARD PLATE) of the same molecule?
Its mutagenic call is “active; positive”.

And the mutagenic call (Test System: AMES SALMONELLA TYPHIMURIUM, Strain/Indicator: YG7112, Metabolic Activation: NONE, Method: PREINCUBATION)?
The mutagenic call was “active; positive”.

What about the mutagenic call (Test System: AMES SALMONELLA TYPHIMURIUM, Strain/Indicator: YG7113, Metabolic Activation: NONE, Method: PREINCUBATION) of the same molecule?
Its mutagenic call is “active; positive”.

What about the mutagenic call (Test System: AMES SALMONELLA TYPHIMURIUM, Strain/Indicator: YG7119, Metabolic Activation: NONE, Method: PREINCUBATION) of the same molecule?
Its mutagenic call is “active; positive”.

What about the mutagenic call (Test System: Ames Salmonella typhimurium, Strain/Indicator: TA100, Metabolic Activation: None, Method: Preincubation) of the same molecule?
Its mutagenic call is “active; positive”.

And the mutagenic call (Test System: Ames Salmonella typhimurium, Strain/Indicator: TA104, Metabolic Activation: None, Method: Plate incorporation)?
Its mutagenic call is “active; positive”.

What about the mutagenic call (Test System: Ames Salmonella typhimurium, Strain/Indicator: TA1975P, Metabolic Activation: None, Method: Preincubation) of the same molecule?
The mutagenic call was “active; positive (at higher doses)”.

And the mutagenic call (Test System: CHINESE HAMSTER OVARY, Strain/Indicator: CHO-KTL3 (HPRT)/6-THIOGUANINE, Metabolic Activation: NONE)?
Its mutagenic call is “active; positive”.

And the mutagenic call (Test System: CHINESE HAMSTER V-79, Strain/Indicator: V-79 (HGPRT), Metabolic Activation: NONE)?
Its mutagenic call is “inactive; negative”.

And the mutagenic call (Test System: E. COLI, Strain/Indicator: CL101P, Metabolic Activation: NONE, Method: PREINCUBATION)?
Its mutagenic call is “active; positive”.

What about the mutagenic call (Test System: E. COLI, Strain/Indicator: CL102P, Metabolic Activation: NONE, Method: PREINCUBATION) of the same molecule?
Its mutagenic call is “active; positive”.

And the mutagenic call (Test System: E. COLI, Strain/Indicator: CL103P, Metabolic Activation: NONE, Method: PREINCUBATION)?
The mutagenic call was “active; positive”.

And the mutagenic call (Test System: E. COLI, Strain/Indicator: CL104P, Metabolic Activation: NONE, Method: PREINCUBATION)?
Its mutagenic call is “active; positive”.

And the mutagenic call (Test System: E. COLI, Strain/Indicator: CL105P, Metabolic Activation: NONE, Method: PREINCUBATION)?
Its mutagenic call is “active; positive”.

And the mutagenic call (Test System: E. COLI, Strain/Indicator: CL106P, Metabolic Activation: NONE, Method: PREINCUBATION)?
Its mutagenic call is “inactive; negative”.

What about the mutagenic call (Test System: E. COLI, Strain/Indicator: WP2, Metabolic Activation: NONE, Method: PREINCUBATION) of the same molecule?
Its mutagenic call is “inactive; negative”.

And the mutagenic call (Test System: E. COLI, Strain/Indicator: WP2 UVRA, Metabolic Activation: NONE, Method: PREINCUBATION)?
The mutagenic call was “active; positive”.

And the mutagenic call (Test System: E. coli, Strain/Indicator: XL-1 Blue MRA P2 (Spi), Method: Standard plate)?
The mutagenic call was “inactive; negative”.

And the mutagenic call (Test System: E. coli, Strain/Indicator: YG6020 (Gpt)/6-Thioguanine, Method: Standard plate)?
Its mutagenic call is “inactive; negative”.

And the mutagenic call (Test System: HUMAN H1A1V2 CELLS, Strain/Indicator: TK LOCUS, Metabolic Activation: NONE, Method: SUSPENSION/PLATE)?
The mutagenic call was “active; positive”.

And the mutagenic call (Test System: HUMAN LYMPHOBLASTOID CELLS, Strain/Indicator: AHH-1 CELLS (TK+/TK-), Metabolic Activation: NONE, Method: SUSPENSION/PLATE)?
Its mutagenic call is “active; positive”.

And the mutagenic call (Test System: HUMAN LYMPHOBLASTOID CELLS, Strain/Indicator: MCL-5 CELLS (TK+/TK-), Metabolic Activation: NONE, Method: SUSPENSION/PLATE)?
Its mutagenic call is “active; positive”.

And the mutagenic call (Test System: MOUSE LYMPHOMA, Strain/Indicator: L5178Y (TK+/TK-), Metabolic Activation: NONE, Method: SUSPENSION/PLATE)?
The mutagenic call was “active; positive”.

What about the mutagenic call (Test System: UDS HUMAN HEPATOCYTES, Strain/Indicator: THY INCORP, Metabolic Activation: NONE, Method: AUTORADIOGRAPHY) of the same molecule?
The mutagenic call was “active; positive”.

And the mutagenic call (Test System: UDS MOUSE HEPATOCYTES, Strain/Indicator: THY INCORP, Metabolic Activation: IN VIVO, Method: AUTORADIOGRAPHY)?
The mutagenic call was “inactive; negative”.

And the mutagenic call (Test System: UDS MOUSE HEPATOCYTES, Strain/Indicator: THY INCORP, Metabolic Activation: NONE, Method: AUTORADIOGRAPHY)?
The mutagenic call was “active; positive”.

And the mutagenic call (Test System: UDS RAT HEPATOCYTES, Strain/Indicator: THY INCORP, Metabolic Activation: NONE, Method: AUTORADIOGRAPHY)?
Its mutagenic call is “active; positive”.

And the mutagenic call (Test System: UDS RAT HEPATOCYTES, Strain/Indicator: THYMIDINE INCORPORATION, Metabolic Activation: NONE, Method: AUTORADIOGRAPHY)?
The mutagenic call was “active; positive”.

Which results are given for `O=C(N/N=C/c1ccc([N+](=O)[O-])o1)c1ccc(O)cc1`?
mutagenic call (Test System: AMES SALMONELLA TYPHIMURIUM, Strain/Indicator: TA100(FR1), Metabolic Activation: NONE, Method: STANDARD PLATE): active; positive; mutagenic call (Test System: AMES SALMONELLA TYPHIMURIUM, Strain/Indicator: TA100(FR1), Metabolic Activation: RAT, LIVER, S-9, PHENOBARBITAL AND 3-METHYLCHOLANTHRENE, Method: STANDARD PLATE): active; positive; mutagenic call [2]: active; positive; mutagenic call (Test System: AMES SALMONELLA TYPHIMURIUM, Strain/Indicator: TA100, Metabolic Activation: RAT, LIVER, S-9, PHENOBARBITAL AND 3-METHYLCHOLANTHRENE, Method: STANDARD PLATE): active; positive; mutagenic call (Test System: CHINESE HAMSTER V-79, Strain/Indicator: V-79/6-THIOGUANINE, Metabolic Activation: NONE): inactive; negative; mutagenic call (Test System: CHINESE HAMSTER V-79, Strain/Indicator: V-79/6-THIOGUANINE, Metabolic Activation: RAT, LIVER, HEPATOCYTES): inactive; negative; mutagenic call (Test System: CHINESE HAMSTER V-79, Strain/Indicator: V-79/OUABAIN, Metabolic Activation: NONE): inactive; negative; mutagenic call (Test System: CHINESE HAMSTER V-79, Strain/Indicator: V-79/OUABAIN, Metabolic Activation: RAT, LIVER, HEPATOCYTES): inactive; negative

With `Oc1ccc2c3cc4ccccc4cc3c3ccccc3c2c1O` as the molecule, how does the mutagenic call (Test System: AMES SALMONELLA TYPHIMURIUM, Strain/Indicator: TA100, Metabolic Activation: RAT, LIVER, S-9, AROCLOR 1254, Method: PREINCUBATION) read?
Its mutagenic call is “active; positive”.

For `Cc1ccc(N=Nc2c(O)ccc3ccccc23)cc1C`, which mutagenic call [1] is on record?
The mutagenic call was “inactive; negative”.

What about the mutagenic call (Test System: AMES SALMONELLA TYPHIMURIUM, Strain/Indicator: TA98, Metabolic Activation: RAT, LIVER, S-9, Method: STANDARD PLATE) of the same molecule?
Its mutagenic call is “inactive; negative”.

What about the mutagenic call [2] of the same molecule?
Its mutagenic call is “inactive; negative”.

And the mutagenic call (Test System: AMES SALMONELLA TYPHIMURIUM, Strain/Indicator: TA100, Metabolic Activation: RAT, LIVER, S-9, Method: STANDARD PLATE)?
The mutagenic call was “inactive; negative”.

For `Cc1cnc2ccc3c(nc(NO)n3C)c2n1`, which mutagenic call [1] is on record?
Its mutagenic call is “active; positive”.

Which results are given for `NC1CCCCC1`?
mutagenic call (Test System: CHINESE HAMSTER OVARY, Strain/Indicator: CHO-K1-BH4 (HGPRT), Metabolic Activation: NONE, Method: STANDARD PLATE): inactive; negative; mutagenic call (Test System: CHINESE HAMSTER OVARY, Strain/Indicator: CHO-K1-BH4 (HGPRT), Metabolic Activation: RAT, LIVER, S-9, Method: STANDARD PLATE): inactive; negative; mutagenic call (Test System: UDS RODENT HEPATOCYTES, Strain/Indicator: THY INCORP (NON-S-PHASE), Metabolic Activation: NONE, Method: AUTORADIOGRAPHY): inactive; negative
